# Results from BindingDB's records for PubMed 9864265 (Second Tokushima Institute of New Drug Research, 1998).
# What was measured:
# [1] = target: T1, Vasopressin V1b receptor (Homo sapiens, UniProt P47901)
# T1 sequence (P47901 whole entry): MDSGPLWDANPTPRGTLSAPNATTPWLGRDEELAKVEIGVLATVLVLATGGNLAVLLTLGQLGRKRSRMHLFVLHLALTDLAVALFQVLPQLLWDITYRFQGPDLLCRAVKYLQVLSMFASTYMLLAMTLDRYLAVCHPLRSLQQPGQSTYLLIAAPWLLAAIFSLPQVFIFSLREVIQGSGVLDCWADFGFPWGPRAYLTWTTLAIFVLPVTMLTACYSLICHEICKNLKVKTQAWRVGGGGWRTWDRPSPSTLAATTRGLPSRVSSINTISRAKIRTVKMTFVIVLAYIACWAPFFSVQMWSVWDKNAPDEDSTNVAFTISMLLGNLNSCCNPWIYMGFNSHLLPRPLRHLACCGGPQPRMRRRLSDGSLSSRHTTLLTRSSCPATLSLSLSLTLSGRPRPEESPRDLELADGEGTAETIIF
# [2] = target: Vasopressin V1a receptor (Rattus norvegicus, UniProt P30560)
# [3] = target: Vasopressin V2 receptor (Rattus norvegicus, UniProt Q00788)
# Vasopressin V2 receptor, sequence (Q00788 whole entry): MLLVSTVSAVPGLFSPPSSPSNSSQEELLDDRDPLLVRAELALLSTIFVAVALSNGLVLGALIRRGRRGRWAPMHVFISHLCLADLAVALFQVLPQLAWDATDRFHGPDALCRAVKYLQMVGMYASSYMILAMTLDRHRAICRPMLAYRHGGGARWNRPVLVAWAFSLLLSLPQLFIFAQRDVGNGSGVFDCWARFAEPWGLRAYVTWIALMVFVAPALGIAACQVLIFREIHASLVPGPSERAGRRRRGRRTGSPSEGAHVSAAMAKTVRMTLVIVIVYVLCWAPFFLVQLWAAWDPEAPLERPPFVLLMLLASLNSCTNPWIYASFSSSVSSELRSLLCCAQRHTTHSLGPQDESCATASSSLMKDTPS
# Vasopressin V1a receptor, sequence (P30560 whole entry): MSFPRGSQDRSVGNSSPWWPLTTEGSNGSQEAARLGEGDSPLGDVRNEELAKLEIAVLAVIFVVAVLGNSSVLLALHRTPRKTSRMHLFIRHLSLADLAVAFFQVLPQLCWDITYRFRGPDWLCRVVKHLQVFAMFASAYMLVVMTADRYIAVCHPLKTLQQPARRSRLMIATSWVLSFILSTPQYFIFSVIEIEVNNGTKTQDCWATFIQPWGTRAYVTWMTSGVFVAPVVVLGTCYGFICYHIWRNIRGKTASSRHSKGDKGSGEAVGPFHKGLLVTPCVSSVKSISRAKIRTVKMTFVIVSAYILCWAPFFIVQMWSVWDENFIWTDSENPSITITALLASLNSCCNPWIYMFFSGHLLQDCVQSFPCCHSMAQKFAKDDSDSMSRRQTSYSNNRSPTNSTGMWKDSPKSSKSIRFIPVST
Ki [1] [nM],Ki [2] [nM],Ki [3] [nM],Compound
> 10000,524,–,Cc1ccccc1C(=O)Nc1ccc(C(=O)N2CCCC(N(C)C)c3ccccc32)cc1 (stereo not given)
> 10000,325,1.33,Cc1ccccc1C(=O)Nc1ccc(C(=O)N2CCCC(O)c3cc(Cl)ccc32)c(C)c1 (stereo not given)
